Laboratory results from the NIST ThermoML archive (doi:10.1007/s10765-012-1373-z).

Settings: Liquid; for mass density: Buoyancy - hydrostatic balance; for viscosity: Falling or rolling sphere viscometry

CCCCCCC [heptane]
Settings | mass density [kg/m3] | viscosity [mPa·s]
298.15 K, 98 kPa | 679.99 | 0.396
298.15 K, 24510 kPa | 702.85 | 0.4923
298.15 K, 49030 kPa | 718.61 | 0.602
298.15 K, 98060 kPa | 741.52 | 0.8489
298.15 K, 147100 kPa | 760.47 | 1.137
298.15 K, 196130 kPa | 780.16 | 1.493
298.15 K, 245160 kPa | 792.15 | 1.91
303.15 K, 98 kPa | 674.98 | 0.373
303.15 K, 24510 kPa | 697.11 | 0.4737
303.15 K, 49030 kPa | 713.79 | 0.5696
303.15 K, 98060 kPa | 739.05 | 0.8037
303.15 K, 147100 kPa | 759.49 | 1.071
303.15 K, 196130 kPa | 777.85 | 1.389
303.15 K, 245160 kPa | 789.56 | 1.744
323.11 K, 49030 kPa | 701.18 | 0.4816
323.13 K, 24510 kPa | 680.94 | 0.3966
323.2 K, 98060 kPa | 731.08 | 0.6613
323.2 K, 147100 kPa | 749.97 | 0.87
323.21 K, 196130 kPa | 768.38 | 1.112
323.25 K, 98 kPa | 659.16 | 0.3107
323.25 K, 245160 kPa | 783.33 | 1.378
362.8 K, 147100 kPa | 731.67 | 0.6488
362.83 K, 98060 kPa | 709.5 | 0.4956
362.85 K, 49030 kPa | 675.9 | 0.3626
362.87 K, 196130 kPa | 752.22 | 0.8089
362.92 K, 98 kPa | 622.63 | 0.2146
362.98 K, 245160 kPa | 769.76 | 0.9926
363.07 K, 24510 kPa | 654.31 | 0.2937
391.93 K, 147100 kPa | 717.73 | 0.531
392 K, 196130 kPa | 739.92 | 0.6621
392 K, 245160 kPa | 759.27 | 0.8047
392.04 K, 98060 kPa | 696.22 | 0.4119
393.01 K, 24510 kPa | 634.69 | 0.2366
393.14 K, 49030 kPa | 657.93 | 0.2965
422.17 K, 196130 kPa | 729 | 0.5591
422.24 K, 98060 kPa | 679.62 | 0.3479
422.26 K, 147100 kPa | 704.75 | 0.4464
422.58 K, 24510 kPa | 611.28 | 0.1951
422.6 K, 49030 kPa | 638.89 | 0.2476
423.04 K, 245160 kPa | 748.46 | 0.6699
452.91 K, 245160 kPa | 734.45 | 0.577
453.04 K, 196130 kPa | 716.18 | 0.4784
453.1 K, 147100 kPa | 689.71 | 0.3883
453.16 K, 98060 kPa | 666.38 | 0.3007
453.24 K, 49030 kPa | 621.56 | 0.2134
453.4 K, 24510 kPa | 589.05 | 0.1668
470.1 K, 49030 kPa | 611.78 | 0.2021
470.19 K, 24510 kPa | 574.55 | 0.1568
470.19 K, 98060 kPa | 658.7 | 0.2858
470.19 K, 147100 kPa | 685.13 | 0.3672
470.57 K, 196130 kPa | 709.79 | 0.4549
470.61 K, 245160 kPa | 729.17 | 0.5475
